# Test results as given in publication PMC11732138, “Gold complex compounds that inhibit drug-resistant Staphylococcus aureus by targeting thioredoxin reductase” (Frontiers in Antibiotics, 2023).
# pIC50: −log10 of the molar value. Read-outs that look alike come from different tables or passages of the source.
# Columns and labels:
# [1] = Immortalized cell line toxicity (WST-1), the three cell lines together; type: cell-based; details: human, hkc, hepg2, a549 cells; read-out: toxicity to cell lines as multiple of the MIC
# Experimental: (§1) A hepatic cell line (HepG2), lung carcinoma cell line (A549), and kidney cell line (HKC) were used to test the cytotoxicity of investigational compounds. Cells were grown in DMEM (ThermoFisher Scientific, Waltham, MA, USA) supplemented with 10% fetal bovine serum (FBS) (ThermoFisher Scientific, Waltham, MA, USA) and 1% penicillin/streptomycin (ThermoFisher Scientific, Waltham, MA, USA) and maintained at 37°C in 5% CO2. 2.5x10^4 cells in 100 μL of DMEM with 10% FBS were added to wells of 96-well plates 24 h prior to the experiments. Compounds were serially diluted in […], and 100 μL antibiotic-free DMEM was added to the monolayer and incubated at 37°C in 5% CO2 for 24 h. At 2 h before the end of the incubation period, 10 μL of 2-(4-iodophenyl)-3-(4-nitrophenyl)-5-(2, 4-disulfophenyl)-2H-tetrazolium (WST-1) solution (Roche, Mannheim, Germany) was added to each well. WST-1 reduction was monitored at 450 nm using a Vmax microplate reader. Assays were performed in triplicate, and the percentage survival was calculated by comparing the compound-treated wells to the DMSO vehicle control wells.
# [2] = tested on: HKC cells; assay: Immortalized cell line toxicity (WST-1), HKC; type: cell-based, human; details: HKC kidney cell line, 24 h
# Experimental: as §1
# [3] = Compound solubility in DMSO; type: physicochemical; details: organic solvent or mixture, turbidity at 540 nm, read-out: concentration up to which the compound remained soluble in DMSO
# Experimental: To test compound solubility, stock solutions were made in triplicate at 50 mg/mL in DMSO. Two-fold serial dilutions of the test compounds were prepared at 50 μL volume in a 96-well assay plate and were kept in the incubator for 1 h. After incubation, the absorbance was measured at 540 nm using a Vmax microplate reader (Molecular Devices, Sunnyvale, CA, USA.) to detect turbidity.
# [4] = Compound solubility in PBS; type: physicochemical; details: aqueous buffer
# Experimental: Compound solubility in PBS. Compound solubility was measured in PBS. Briefly, serial dilutions of test compounds were prepared in DMSO at 100x the final concentration. Test compound solutions were diluted 100-fold into PBS in a 96-well plate and mixed. After 2 h, the presence of precipitate was detected by measuring absorbance at 540 nm.
# [5] = tested on: S. aureus MW2; assay: Time to kill assay; type: cell-based, Staphylococcus aureus; details: 4 × MIC, 4 h; bactericidal = 3-log10-CFU/mL reduction
# Experimental: S. aureus MW2, a methicillin-resistant S. aureus (MRSA) isolate, was used to determine the bacteriostatic/bactericidal properties of test compounds, as previously described ([Rajamuthiah et al., 2015]). Assays were carried out as 2 biological replicates with n=3 for each in 24 well plates (BD Biosciences, Franklin Lakes, NJ, USA). Briefly, S. aureus MW2 cells were streaked on TSB agar from a frozen glycerol stock, and after overnight incubation, a single colony was inoculated on 2 mL of TSB and incubated at 37°C with agitation. The overnight culture of S. aureus MW2 was centrifuged at 4000 g for 5 min and then washed twice with PBS and collected through centrifuged at 4000 g for 5 min. The PBS was discarded and cells were suspended in TSB and aliquoted into a 24-well plate at a density of 10^8 cells/mL as a 1 mL volume. Test compounds were added such that the final concentration was 4 × MIC, and the cultures were incubated at 37°C with agitation. At designated time intervals, 5 μL aliquots from each test condition were serially diluted in TSB and plated onto TSA (BD Biosciences, Franklin Lakes, NJ, USA). CFUs were enumerated after overnight incubation at 35°C, and data were plotted using GraphPad Prism 9.0 (San Diego, CA, USA) to report the means and standard deviation of growth as measured by CFU/mL.
# [6] = target: T1, hERG channel (Homo sapiens, UniProt Q12809); assay: hERG measurement (QPatch HTX patch clamp)
# T1 sequence (Q12809 whole entry): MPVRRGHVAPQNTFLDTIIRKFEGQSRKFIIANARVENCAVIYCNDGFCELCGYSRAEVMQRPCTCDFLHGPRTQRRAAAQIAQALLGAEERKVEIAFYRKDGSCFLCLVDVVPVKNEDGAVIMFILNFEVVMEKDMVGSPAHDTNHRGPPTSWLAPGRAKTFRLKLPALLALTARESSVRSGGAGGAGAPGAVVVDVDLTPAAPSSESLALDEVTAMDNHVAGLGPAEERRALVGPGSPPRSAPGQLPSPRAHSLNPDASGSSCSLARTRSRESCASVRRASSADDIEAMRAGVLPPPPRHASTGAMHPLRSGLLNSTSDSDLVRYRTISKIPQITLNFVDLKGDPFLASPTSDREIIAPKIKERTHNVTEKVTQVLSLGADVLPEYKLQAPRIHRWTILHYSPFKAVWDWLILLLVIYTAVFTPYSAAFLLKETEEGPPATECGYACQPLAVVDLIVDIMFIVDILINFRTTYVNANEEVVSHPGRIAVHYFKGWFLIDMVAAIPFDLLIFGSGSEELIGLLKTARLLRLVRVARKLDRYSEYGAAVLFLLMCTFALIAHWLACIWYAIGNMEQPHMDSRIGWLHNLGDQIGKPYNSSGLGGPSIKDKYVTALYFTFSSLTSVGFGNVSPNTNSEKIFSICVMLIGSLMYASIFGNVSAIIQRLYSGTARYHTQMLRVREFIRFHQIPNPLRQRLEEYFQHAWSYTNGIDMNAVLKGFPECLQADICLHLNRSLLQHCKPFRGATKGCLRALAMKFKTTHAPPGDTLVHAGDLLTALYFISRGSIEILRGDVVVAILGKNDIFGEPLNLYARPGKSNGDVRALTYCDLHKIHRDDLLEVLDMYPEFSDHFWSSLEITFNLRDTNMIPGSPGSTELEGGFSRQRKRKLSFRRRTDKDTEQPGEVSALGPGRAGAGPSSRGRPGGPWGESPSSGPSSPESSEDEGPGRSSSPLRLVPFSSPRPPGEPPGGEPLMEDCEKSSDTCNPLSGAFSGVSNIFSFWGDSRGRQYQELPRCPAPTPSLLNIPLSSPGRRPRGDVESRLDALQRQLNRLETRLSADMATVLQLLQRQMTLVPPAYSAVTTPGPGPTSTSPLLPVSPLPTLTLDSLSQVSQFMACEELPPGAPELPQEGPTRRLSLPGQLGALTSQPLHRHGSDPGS
# Description: (§4) QPatch HTX system (Sophion Biosciences A/S, Ballerup, Denmark) was used to examine hERG signaling (Cyprotex, Watertown, MA, USA). The system was primed with appropriate extracellular (NaCl, KCl, CaCl2, MgCl2, D-glucose, HEPES, pH 7.4) and intracellular (KCl, MgCl2, EGTA, MgATP, HEPES, pH 7.2) solutions before conducting the study in a 48 well plate (QPlate, Sophion Biosciences A/S, Ballerup, Denmark). All cell suspensions, buffers, and test compound solutions were kept at room temperature during the experiment. HEK293 cells stably transfected with hERG cDNA were washed and positioned into each well (recording chamber) of the QPlate. The QPatch system follows the general principles of conventional whole-cell patch-clamping: a high resistance seal is formed between the patch electrode, and an individual cell, the membrane across the electrode tip is then ruptured, and the whole-cell patch-clamp configuration is established. The standard voltage profile was as follows: step from -80 mV to –50 mV for 200 ms, +20 mV for 4.8 s, step to -50 mV for 5 s, then stepped to the holding potential of -80 mV. The step from -80 mV to the test command (+20 mV) results in an outward current (i.e., current flows out of the cell), and the step from the test command (+20 mV) to -50 mV results in the tail current (the tail current represents deactivation of the current overtime). Compound dilutions were prepared by diluting a DMSO solution (default 10 mM), followed by dilution into an extracellular buffer such that the final concentrations tested were 0.1, 1, and 10 μM (final DMSO concentration 0.1%). Perfusion solutions contained 0.05% Pluronic F-68 and were stored at room temperature for the duration of the experiment each day. The voltage protocol was run and recorded continuously during the experiment. Cells were treated with a vehicle for 3 min (i.e., 0.1% DMSO) followed by three increasing test substance concentrations (0.1, 1, and 10 μM). The test compounds were applied in triplicate at each concentration and tested in at least 2 cells (biological replicates). […]
# [7] = tested on: human primary hepatocytes; assay: Human primary hepatocytes toxicity; type: cell-based; details: 24 h, WST1
# Experimental: Human primary hepatocytes toxicity. Cryopreserved human primary hepatocytes were purchased from the Cell Resource Core at Massachusetts General Hospital (Boston, MA, USA). Collagen sandwiched configuration was used to culture the thawed cells in 24-well plates. The 24-well plates were coated with rat tail collagen type I (Cell Recourse Core, MGH) and incubated for an hour before 4 x 10^5 live cells were plated and incubated at 37°C with 5% CO2 for 1 h to allow cells to attach to the collagen gel. After incubation, the medium was removed along with dead cells, and the remaining cells received 0.5 mL of hepatocyte culture medium containing Dulbecco’s modified Eagle’s medium (DMEM) media supplemented with 10% FBS, 0.5 U/mL insulin, 14 ng/mL glucagon, 20 ng/mL EGF, 7.5 µg/mL hydrocortisone and 200 U/mL penicillin-streptomycin. The cell cultures were incubated in a humidified, 5% CO2 incubator at 37°C. After 24 h, a top layer of collagen gel was poured over the hepatocytes attached to collagen on the bottom of the plate, making a sandwich model. After 1 h, investigational compounds at the designated concentrations were added and incubated for 24 h. Post incubation, hepatocyte WST1 (Roche, Basel, Switzerland) was added and incubated for 4 h. Cell staining was measured by recording the absorbance at 420 nm, measured using a Vmax microplate reader (Molecular Devices, San Jose, CA, USA.), and data were plotted using GraphPad Prism. Cells were tested in triplicate.
# [8] = tested on: renal proximal tubule epithelial cells; assay: Renal proximal tubule epithelial cell toxicity; type: cell-based, human; details: renal proximal tubule epithelial cells
# [9] = tested on: HepG2 cells; assay: Immortalized cell line toxicity (WST-1), HepG2; type: cell-based, human; details: HepG2 liver cell line, 24 h
# Experimental: as §1
# [10] = tested on: A549 cells; assay: Immortalized cell line toxicity (WST-1), A549; type: cell-based, human; details: A549 lung carcinoma cell line, 24 h
# Experimental: as §1
# [11] = target: S. aureus TrxR (Staphylococcus aureus, UniProt P66011); assay: TrxR (TrxB) enzymatic assay, DTNB to TNB conversion
# Sequence of S. aureus TrxR (P66011 whole entry): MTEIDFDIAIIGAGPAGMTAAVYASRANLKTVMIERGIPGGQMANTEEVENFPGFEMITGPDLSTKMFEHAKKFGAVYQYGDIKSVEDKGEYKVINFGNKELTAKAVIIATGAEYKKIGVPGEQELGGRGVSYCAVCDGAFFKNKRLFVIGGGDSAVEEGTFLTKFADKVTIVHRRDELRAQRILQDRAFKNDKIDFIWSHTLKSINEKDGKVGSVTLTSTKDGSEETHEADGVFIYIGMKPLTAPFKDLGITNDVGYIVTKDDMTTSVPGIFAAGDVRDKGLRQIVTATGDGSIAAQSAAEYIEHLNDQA
# Experimental: TrxR specific inhibitory activity was evaluated using 40 μL of S. aureus TrxR enzyme (0.5 μg/μL) per 200 mL of the reaction mixture for 15 minutes, comparing auranofin to other sulfur-containing compounds (all tested at 10 μg/mL), including known anti-S. aureus compounds.
# For the screening assay, diluted TrxR assay buffer (Cayman Chemical, Ann Arbor, MI) (100 μL) was mixed with the investigational compounds (20 μL) in a 96 well-plate format and combined with Sa-TrxB (40 μL; 0.5 μg/mL), DTNB (20 μL) and NADPH (20 μL). The reaction entailed combining NADPH and Sa-TrxB with DTNB, which was converted to TNB, producing a yellow color.
# [12] = tested on: human erythrocytes; details: tested range 256 to 0.125 μg/mL
# Experimental: The plate was incubated for 1h at 37°C. After incubation, the plate was centrifuged at 1000 g for 5 min. Then, 100 µL of supernatant was transferred to a fresh 96-well microtiter well plate and the OD was measured at 540 nm. The assay was conducted in triplicate and the mean and SD values were reported.
# [13] = tested on: intracellular free thiols of S. aureus MW2; assay: Thiol depletion assay; type: cell-based, Staphylococcus aureus; details: treated vs untreated cell lysate
# Experimental: S. aureus MW2 was treated for 15 min with the indicated (0.125, 0.25, 0.5, or 0.75 µg/mL) concentrations of auranofin, AU1, AU5, or ampicillin. After treatment bacteria were washed twice in PBS and then resuspended in 100 mM potassium phosphate, monobasic, pH 7.4, containing 1 mM ethylenediaminetetraacetic acid to promote lysis. Cells were incubated in the lysis solution for 30 min at 60°C and then vortexed briefly. The solution was centrifuged at 13,000 g for 10 min to collect cell debris. Lysate was collected and 50 μL was transferred to a 96-well plate. Thiols were quantified using the Fluorometric Thiol assay kit following the manufacturer’s instructions (Millipore Sigma, St. Louis, MO, USA). The fluorescence intensity was measured after a 30 min incubation time at λex = 490/λem = 535 nm using a Vmax plate reader.
# [14] = tested on: S. aureus MW2 biofilm formation; assay: Biofilm formation inhibition; type: cell-based, Staphylococcus aureus; details: 24 h, Alamar Blue
# Experimental: (§2) Diluted bacterial cells were added to 100 μL of test compounds (serially diluted 16 to 0 μg/mL) and incubated for 24 h to assess the biofilm formation inhibition. For the disruption of matured biofilm, diluted cells in 100 μL were added to the 96-well plate and incubated for 24 h with no agitation. […] Biofilm assays were completed in triplicate.
# [15] = tested on: A. baumannii 17978; assay: Broth microdilution MIC, A. baumannii; type: cell-based, Acinetobacter baumannii; details: A. baumannii 17978
# Experimental: (§3) In vitro antibiotic susceptibilities were determined using the broth microdilution assay established by the Clinical and Laboratory Standards Institute ([Clinical and Laboratory Standards Institute, 2012]). Broth microdilution assays were carried out with 2 biological replicates, each in triplicate, Mueller–Hinton broth (MHB; BD Biosciences, Franklin Lakes, NJ, USA) with a total assay volume of 100 μL in 96-well plates (BD Biosciences, Franklin Lakes, NJ, USA). Two-fold serial dilutions of compounds were prepared at a range of 0.01– 64 μg/mL in 50 μL of MHB. The initial bacterial inoculum was adjusted to OD600 0.06, 50 μL was, added to the test compounds, and then incubated at 35°C for 18 h. Post incubation, OD600 was measured using a Vmax microplate reader (Molecular Devices, San Jose, CA), and the lowest concentration of test compound that suppressed bacterial growth was reported as the MIC. Broth culture from the MIC assay (10 μL) was plated on Mueller–Hinton agar (BD Biosciences, Franklin Lakes, NJ, USA), and colony-forming units (CFUs) were enumerated after overnight incubation at 37°C.
# [16] = set-up: method as in Kean et al., 1997; details: auranofin-treated patients ref Kean et al., 1997; cited from earlier work
# [17] = tested on: mature S. aureus biofilm; assay: Disruption of mature biofilm; type: cell-based, Staphylococcus aureus; details: preformed 24 h biofilm, Alamar Blue
# Experimental: as §2
# [18] = target: T1, hERG channel
# Description: as §4
# [19] = tested on: P. aeruginosa PA14; assay: Broth microdilution MIC, P. aeruginosa; type: cell-based, Pseudomonas aeruginosa; details: P. aeruginosa PA14
# Experimental: as §3
# [20] = tested on: E. faecium ATCC E007; assay: Broth microdilution MIC, E. faecium; type: cell-based, Enterococcus faecium; details: E. faecium ATCC E007
# Experimental: as §3
# [21] = tested on: S. aureus MW2; assay: Diamide assay (CFU reduction); type: cell-based, Staphylococcus aureus; details: compound 0.5 μg/mL + 5 mM diamide, 3 h
# Experimental: An overnight culture of S. aureus MW2 was inoculated in tryptic soy broth (TSB) media and grown with agitation. The cells were centrifuged, washed with PBS, and diluted to an OD600 0.4 (10^8 CFU/mL) in PBS. The cells were then treated with auranofin (0.5 µg/mL), AU1 (0.5 µg/mL), AU5 (0.5 µg/mL), and diamide (5 mM and 10 mM) alone or in combinations for 3 h at 37°C. The cells were then serially diluted and plated on tryptic soy agar (TSA) media and incubated at 37°C for 24 h. Colonies that grew on plates were enumerated to determine the effect of the drug and diamide on S. aureus.
# [22] = tested on: Enterobacter (EAE 2625); assay: Broth microdilution MIC, Enterobacter; type: cell-based, Enterobacter spp.; details: Enterobacter (EAE 2625)
# Experimental: as §3
# [23] = tested on: S. aureus MW2; assay: Broth microdilution MIC, S. aureus MW2; type: cell-based, Staphylococcus aureus; details: S. aureus MW2 (MRSA), broth microdilution, 18 h
# Experimental: as §3
# [24] = tested on: K. pneumoniae ATCC 77326; assay: Broth microdilution MIC, K. pneumoniae; type: cell-based, Klebsiella pneumonia; details: K. pneumoniae ATCC 77326
# Experimental: as §3
# [25] = tested on: H. pylori 49503; assay: Broth microdilution MIC, H. pylori; type: cell-based, Helicobacter pylori; details: H. pylori 49503
# Experimental: as §3
structure (smiles),measurement,setting,value
CC(C)(C)c1ccc([S-])cc1.CCP(CC)CC.[Au+] [AU1],selectivity ratio at 24 h,[1],16 to 32
same,LD50,[2],< 2 µg/mL
same,solubility at 1 h,[3],≥ 50 µg/mL
same,solubility at 2 h,"[4]; PBS, 2 Hour, highest concentration with no detectable precipitate, read-out: Solubility Limit",3.13 µM
same,solubility at 2 h,"[4]; pbs, read-out: Solubility in PBS converted to mass concentration",1.49 µg/mL
same,bactericidal versus bacteriostatic nature (time-to-kill kinetics),[5],bacteriostatic
same,pIC50,[6],< 5.00
same,LD50,[7],approximately 3 μg/mL
same,LD50,[8],1.5 µg/mL
same,LD50 as multiple of the MIC,[8],12 X MIC
same,LD50,[9],approximately 3 μg/mL
same,LD50,[10],approximately 4 μg/mL
same,pIC50,[11],6.30
same,hemolysis (in words),[12],did not cause hemolysis within the tested range
CC(=O)OC[C@H]1O[C@@H]([S-])[C@H](OC(C)=O)[C@@H](OC(C)=O)[C@@H]1OC(C)=O.CCP(CC)CC.[Au+] [Auranofin],impact on free thiols (in words),[13],a reduction was observed
same,concentration that inhibited biofilm formation (P<0.01),[14],0.125 µg/mL
same,MIC,[15],32 µg/mL
same,patients with proteinuria,[16],5%
same,concentration that significantly reduced mature biofilm,[17],0.125 µg/mL
same,pIC50,[18],5.01
same,LD50,[7],approximately 8 μg/mL
same,MIC,[19],>32 µg/mL
same,LD50 as multiple of the MIC,[8],6 X MIC
same,TrxR enzymatic inhibitory activity (in words),[11]; DTNB to TNB conversion,Measurable activity reduction
same,OD420 in TrxR enzymatic assay,"[11]; subscreen, after a 30 min incubation period, DMSO 0.483 ± 0.121",0.295 ± 0.012
same,MIC,[20],0.5 µg/mL
same,log CFU reduction in combination with diamide,[21],2.1 log CFU
same,MIC,[22],>32 µg/mL
same,MIC,[23],0.25 µg/mL
same,MIC,[24],>32 µg/mL
same,MIC,[25],0.25 µg/mL
